Experimental data: patent US11771735B2, “Composition for improving or preventing nonalcoholic fatty liver” (KOHJIN LIFE SCIENCES CO., LTD., priority 2015, dated 2023)

Key:
[1] = system: Mice (C57/B6J) fed with high-fat food; conditions: 20 weeks old
From the text: Mice (C57/B6J, 8 weeks old male) were divided into 4 groups (5 animals each), and the first group (DB) was freely fed with ordinary food (CertifiedDiet “MF” manufactured by Oriental Yeast Co., ltd.). The second group (HFD) was freely fed with high-fat food (High Fat Diet 32, manufactured by CLEA Japan, Inc.), […].
When the mouse was 20 weeks old, the body weight, the liver weight, the serum aspartate aminotransferase (AST), the alanine aminotransferase (ALT), the serum triglyceride (TG), the free fatty acid value (FFA) and the total cholesterol value (T-cho) were measured.

[2] = system: subjects who had NAFLD in 31 IU/L or more of ALT; conditions: Case IDs 1 to 9 (group affected); at least one week after initiation; oral 300 mg per day
[3] = HFD6 (6 mg/kg/day) and HFD60 (60 mg/kg/day) groups in comparison to HFD group
[4] = high-fat food mice, glutathione 6 and 60 mg/kg/day in water

N[C@@H](CCC(=O)N[C@@H](CS)C(=O)NCC(=O)O)C(=O)O [glutathione] was tested, and the “serum ALT” value [1, 3] was “significant decrease”, the “serum AST” value [1, 3] was “significant decrease” and the “serum FFA (free fatty acid value)” value [1, 3] was “significant decrease”. The “serum T-cho (total cholesterol value)” value [1, 3] was “significant decrease”, the “serum TG (triglyceride value)” value [1, 3] was “significant decrease” and the liver weight [1, 4] was “the liver weight decreased dependently on the concentration”. The “ratio of liver weight/body weight” value [1, 4] was “decrease of the body weight ratio was also recognized”, the body weight ([1]; high-fat food mice, glutathione 6 or 60 mg/kg/day in water) was “decrease of the body weight was recognized” and the “improvement of ALT after the administration versus before administration (0 wk)” value [2] was no less than 20%.
